Results from US9617267B2, “Compounds and methods for kinase modulation, and indications therefor” (Plexxikon Inc., priority 2009, dated 2017).
Like-named read-outs stand apart in the source and are kept apart here.

What was measured:
[1] = molecular target: B-Raf (Homo sapiens (Human), UniProt P15056); assay: B-Raf kinase activity biochemical assay (AlphaScreen, biotin-MEK1 phosphorylation); settings: B-Raf
Procedure: (§1) Compounds to be tested are diluted in dimethyl sulfoxide to a concentration of 0.1 mM. These are serially diluted 15 μL into 30 μL of dimethyl sulfoxide seven times in 96 well plates for a total of 8 dilution points, and for each dilution point 1 μL is added to a well of an assay plate. […] The reaction is started with addition of 10 μL of 200 μM ATP (i.e. final 100 μM ATP). After incubation of the kinase reaction for 45 minutes at room temperature, 5 μL/well of Stop Solution is added (25 mM Hepes pH 7.5, 100 mM EDTA, 0.01% BSA with donor beads (Streptavidin coated beads, Perkin Elmer), acceptor beads (Protein A coated, Perkin Elmer), and anti phosphor MEK1/2 antibody (CellSignal), each at final concentration 10 μg/mL). The plates are incubated for 3 hours at room temperature and read on Envision reader (Perkin Elmer). […] The signal vs. compound concentration is used to determine the IC50.

[2] = system: B-Raf; assay: as above; settings: for Biochemical activity ratio B/V600E: ratio of IC50 B-Raf / B-Raf V600E; for Biochemical activity ratio B/C: ratio of IC50 B-Raf / c-Raf-1
Procedure: as §1

[3] = molecular target: B-Raf V600E (Homo sapiens (Human), UniProt P15056, V600E); assay: B-Raf V600E kinase activity biochemical assay (AlphaScreen, biotin-MEK1 phosphorylation); settings: for IC50: B-Raf V600E; for Biochemical activity ratio V600E/C: ratio of IC50 B-Raf V600E / c-Raf-1
Sequence of B-Raf V600E (P15056 whole entry V600E): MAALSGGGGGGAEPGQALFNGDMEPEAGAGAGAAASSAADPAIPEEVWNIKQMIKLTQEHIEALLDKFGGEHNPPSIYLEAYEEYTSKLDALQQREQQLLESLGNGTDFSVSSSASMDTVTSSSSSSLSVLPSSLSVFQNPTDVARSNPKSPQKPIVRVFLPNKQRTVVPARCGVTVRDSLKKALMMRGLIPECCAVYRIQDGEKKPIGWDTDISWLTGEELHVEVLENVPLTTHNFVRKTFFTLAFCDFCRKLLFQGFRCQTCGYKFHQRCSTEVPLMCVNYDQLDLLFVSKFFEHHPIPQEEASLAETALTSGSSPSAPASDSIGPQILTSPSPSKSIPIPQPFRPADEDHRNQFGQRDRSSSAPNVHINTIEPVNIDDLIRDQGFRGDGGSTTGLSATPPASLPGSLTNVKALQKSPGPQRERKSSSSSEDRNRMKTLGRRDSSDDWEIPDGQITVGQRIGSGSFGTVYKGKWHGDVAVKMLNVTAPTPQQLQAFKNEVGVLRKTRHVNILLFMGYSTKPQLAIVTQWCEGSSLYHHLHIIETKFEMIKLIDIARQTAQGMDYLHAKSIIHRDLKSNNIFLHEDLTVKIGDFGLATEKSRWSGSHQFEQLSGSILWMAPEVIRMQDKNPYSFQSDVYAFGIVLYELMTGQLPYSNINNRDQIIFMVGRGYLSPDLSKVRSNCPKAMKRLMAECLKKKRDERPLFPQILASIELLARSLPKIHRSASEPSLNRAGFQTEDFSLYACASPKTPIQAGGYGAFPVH
Procedure: as §1

[4] = molecular target: c-Raf-1 (Homo sapiens, UniProt P04049); assay: c-Raf-1 kinase activity biochemical assay (AlphaScreen, biotin-MEK1 phosphorylation)
Sequence of c-Raf-1 (P04049 whole entry, looked up): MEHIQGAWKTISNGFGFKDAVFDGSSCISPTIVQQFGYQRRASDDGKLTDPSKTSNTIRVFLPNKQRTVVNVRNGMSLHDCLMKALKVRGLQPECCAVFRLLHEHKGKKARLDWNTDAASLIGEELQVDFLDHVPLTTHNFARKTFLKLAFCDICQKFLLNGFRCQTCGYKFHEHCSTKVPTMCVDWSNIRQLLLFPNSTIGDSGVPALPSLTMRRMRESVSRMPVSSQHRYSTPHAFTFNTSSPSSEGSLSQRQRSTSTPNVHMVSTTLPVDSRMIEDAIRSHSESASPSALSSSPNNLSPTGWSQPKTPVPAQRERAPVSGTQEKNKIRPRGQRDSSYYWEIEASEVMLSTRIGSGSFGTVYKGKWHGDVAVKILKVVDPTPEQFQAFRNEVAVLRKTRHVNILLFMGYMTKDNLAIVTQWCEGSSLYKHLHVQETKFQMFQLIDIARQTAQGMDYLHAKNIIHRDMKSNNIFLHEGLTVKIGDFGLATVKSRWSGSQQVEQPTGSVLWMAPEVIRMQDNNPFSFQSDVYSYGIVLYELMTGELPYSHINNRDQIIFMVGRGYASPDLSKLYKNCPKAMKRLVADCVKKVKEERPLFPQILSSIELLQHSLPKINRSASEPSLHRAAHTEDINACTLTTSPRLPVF
Procedure: as §1

[5] = molecular target: CYP1A2 (Homo sapiens (Human), UniProt P05177); assay: CYP enzyme inhibition, fluorescent substrate (CEC); settings: human, 15 min
Sequence of CYP1A2 (P05177 whole entry): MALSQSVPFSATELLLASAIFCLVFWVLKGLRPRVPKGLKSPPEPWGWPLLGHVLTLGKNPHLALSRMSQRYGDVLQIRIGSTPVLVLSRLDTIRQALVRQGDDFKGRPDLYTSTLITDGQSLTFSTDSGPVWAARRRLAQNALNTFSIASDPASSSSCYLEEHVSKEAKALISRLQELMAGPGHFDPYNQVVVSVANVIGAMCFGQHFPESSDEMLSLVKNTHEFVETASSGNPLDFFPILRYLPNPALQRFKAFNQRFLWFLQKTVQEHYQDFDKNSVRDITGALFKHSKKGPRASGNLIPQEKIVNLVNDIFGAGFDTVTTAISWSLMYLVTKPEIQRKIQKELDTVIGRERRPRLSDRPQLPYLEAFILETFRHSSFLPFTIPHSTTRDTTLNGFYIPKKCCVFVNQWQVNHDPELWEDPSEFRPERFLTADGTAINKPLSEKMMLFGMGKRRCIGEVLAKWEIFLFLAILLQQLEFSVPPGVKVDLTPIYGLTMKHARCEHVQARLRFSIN
Procedure: (§2) CYP (Cytochrome P450) enzymes are the major drug metabolizing enzymes present in the liver. The inhibition of CYP enzyme activity (IC50) for each of CYP1A2, CYP2C19, CYP2C9, CYP2D6, CYP3A4(BFC) and CYP3A4(BQ) is determined for compounds, where inhibition of metabolism of a known substrate leads to a decrease in the fluorescence of the metabolized product. The fluorescence of the product is monitored as a function of compound concentration.
(§3) Compounds are dissolved in dimethyl sulfoxide to a concentration of 100 mM. These are diluted 1 μL into 82 μL of acetonitrile. An 11 μL aliquot of this solution is then added to 204 μL of cofactor mix (1.3% NADPH Regeneration system Solution A, 1.04% NADPH Regeneration system Solution B from BD Biosciences, 5% acetonitrile and 0.05% dimethyl sulfoxide). These are then serially diluted 1:1 (160 μL to 160 μL co-factor mix) for a total of 10 points. A 10 μL aliquot of this final mixture is dispensed into 384 well assay plates and incubated for 10 minutes at 37° C. Enzyme and substrate mix (10 μL; 0.5 pmol CYP1A2/5 μM CEC; 1.0 pmol CYP2C9/75 μM MFC; 0.5 pmol CYP2C19/25 μM CEC; 1.5 pmol CYP2D6/1.5 μM AMMC; 1.0 pmol CYP3A4/50 μM BFC; or 1.0 pmol CYP3A4/40 μM BQ) is added to these assay plates. Assay plates are incubated at 37° C. (CYP1A2-15 min; CYP2C9-45 min; CYP2C19, 2D6 and 3A4-30 min) and read in a Tecan Safire 2 plate reader (CYP1A2, 2C19 and 3A4 409 ex/460 em; CYP2C9 and 2D6 409 ex/530 em). The signal versus compound concentration is used to determine the IC50. The enzymes and substrates for this assay are obtained from BD Biosciences.

[6] = molecular target: CYP2C19 (Homo sapiens (Human), UniProt P33261); assay: CYP enzyme inhibition, fluorescent substrate (CEC)
Sequence of CYP2C19 (P33261 whole entry): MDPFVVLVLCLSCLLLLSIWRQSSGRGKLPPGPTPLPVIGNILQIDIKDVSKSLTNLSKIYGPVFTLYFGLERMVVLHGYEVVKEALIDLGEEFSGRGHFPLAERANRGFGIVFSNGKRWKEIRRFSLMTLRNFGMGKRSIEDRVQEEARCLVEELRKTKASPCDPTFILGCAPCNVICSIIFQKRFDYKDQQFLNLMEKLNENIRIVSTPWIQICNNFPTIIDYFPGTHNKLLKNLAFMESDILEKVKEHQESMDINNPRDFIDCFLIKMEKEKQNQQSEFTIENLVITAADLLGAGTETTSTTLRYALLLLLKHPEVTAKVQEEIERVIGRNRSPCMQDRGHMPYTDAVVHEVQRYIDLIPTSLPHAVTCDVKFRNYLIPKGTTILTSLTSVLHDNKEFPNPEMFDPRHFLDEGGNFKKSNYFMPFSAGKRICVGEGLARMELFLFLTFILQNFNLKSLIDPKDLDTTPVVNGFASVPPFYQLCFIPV
Procedure: as §2
(§4) Compounds are dissolved in dimethyl sulfoxide to a concentration of 100 mM. These are diluted 1 μL into 82 μL of acetonitrile. […] These are then serially diluted 1:1 (160 μL to 160 μL co-factor mix) for a total of 10 points. A 10 μL aliquot of this final mixture is dispensed into 384 well assay plates and incubated for 10 minutes at 37° C. […] Assay plates are incubated at 37° C. […] The signal versus compound concentration is used to determine the IC50. The enzymes and substrates for this assay are obtained from BD Biosciences.

[7] = molecular target: CYP2C9 (Homo sapiens (Human), UniProt P11712); assay: CYP enzyme inhibition, fluorescent substrate (MFC)
Sequence of CYP2C9 (P11712 whole entry): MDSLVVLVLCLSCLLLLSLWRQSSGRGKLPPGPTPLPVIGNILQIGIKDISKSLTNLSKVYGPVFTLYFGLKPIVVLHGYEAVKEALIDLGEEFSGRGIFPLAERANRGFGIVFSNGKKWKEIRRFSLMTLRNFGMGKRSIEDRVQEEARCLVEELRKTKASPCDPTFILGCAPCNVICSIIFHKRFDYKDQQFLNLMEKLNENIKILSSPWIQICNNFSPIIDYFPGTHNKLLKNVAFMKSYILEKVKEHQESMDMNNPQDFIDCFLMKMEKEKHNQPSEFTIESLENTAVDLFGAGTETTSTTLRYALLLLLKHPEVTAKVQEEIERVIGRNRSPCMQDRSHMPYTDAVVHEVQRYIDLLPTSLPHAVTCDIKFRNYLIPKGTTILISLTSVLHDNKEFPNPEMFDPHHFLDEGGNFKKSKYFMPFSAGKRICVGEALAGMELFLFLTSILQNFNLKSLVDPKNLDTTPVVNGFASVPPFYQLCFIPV
Procedure: as §2, §4

[8] = molecular target: CYP2D6 (Homo sapiens (Human), UniProt P10635); assay: CYP enzyme inhibition, fluorescent substrate (AMMC); assay type: in vitro ADME; settings: read-out: Cyp IC50 2D6
Sequence of CYP2D6 (P10635 whole entry): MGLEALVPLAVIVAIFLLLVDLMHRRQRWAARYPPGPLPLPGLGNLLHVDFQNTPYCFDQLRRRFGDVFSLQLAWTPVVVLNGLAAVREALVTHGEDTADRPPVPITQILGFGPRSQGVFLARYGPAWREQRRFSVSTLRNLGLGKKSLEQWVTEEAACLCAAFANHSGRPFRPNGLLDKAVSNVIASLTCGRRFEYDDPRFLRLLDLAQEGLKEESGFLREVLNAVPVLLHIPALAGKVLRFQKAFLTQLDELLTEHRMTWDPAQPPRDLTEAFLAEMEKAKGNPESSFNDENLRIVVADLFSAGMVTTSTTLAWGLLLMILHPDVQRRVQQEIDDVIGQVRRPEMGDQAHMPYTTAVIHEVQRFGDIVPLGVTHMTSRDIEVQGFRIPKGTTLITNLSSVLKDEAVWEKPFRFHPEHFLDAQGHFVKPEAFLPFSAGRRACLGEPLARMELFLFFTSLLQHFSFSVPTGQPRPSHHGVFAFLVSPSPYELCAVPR
Procedure: as §2, §3

[9] = molecular target: CYP3A4(BFC) (Homo sapiens (Human), UniProt P08684); assay: CYP enzyme inhibition, fluorescent substrate BFC
Sequence of CYP3A4(BFC) (P08684 whole entry): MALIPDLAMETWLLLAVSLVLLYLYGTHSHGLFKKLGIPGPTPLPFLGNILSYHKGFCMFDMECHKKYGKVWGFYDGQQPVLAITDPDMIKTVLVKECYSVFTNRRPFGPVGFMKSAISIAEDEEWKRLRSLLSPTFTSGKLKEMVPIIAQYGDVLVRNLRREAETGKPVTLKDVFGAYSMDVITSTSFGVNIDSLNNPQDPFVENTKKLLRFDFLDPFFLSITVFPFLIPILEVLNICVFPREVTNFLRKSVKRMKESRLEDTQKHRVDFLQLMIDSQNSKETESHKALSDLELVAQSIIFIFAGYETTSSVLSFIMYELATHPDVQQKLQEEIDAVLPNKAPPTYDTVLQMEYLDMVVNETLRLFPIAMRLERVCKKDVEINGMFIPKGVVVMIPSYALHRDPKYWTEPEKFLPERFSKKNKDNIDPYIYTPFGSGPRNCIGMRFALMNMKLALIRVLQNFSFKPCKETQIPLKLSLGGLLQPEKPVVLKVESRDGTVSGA
Procedure: as §2, §4

[10] = Relative solubility by turbidity threshold concentration in aqueous buffers (pH 1.5, 4.5, 6.8, 7.4); assay type: physicochemical; settings: for turbidity threshold (L, M, H) 1.4: pH 1.4 [sic] (method: SGF pH 1.5); for turbidity threshold (L, M, H) 4.5: pH 4.5 (SIF); for turbidity threshold (L, M, H) 6.8: pH 6.8 (SIF); for turbidity threshold (L, M, H) 7.4: pH 7.4 (HEPES)
Procedure: As an indication of relative solubility, the turbidity of compounds in aqueous solutions is assessed. To assess possible compound properties in different physiological compartments, such as stomach, intestine, and blood, a series of aqueous buffers with varying pH is used. Thus each compound is diluted into four different physiologically relevant buffers and solution turbidity is measured by spectrophotometry.
Compounds are dissolved at a concentration of 25 mM in dimethyl sulfoxide, then serially diluted 1:1 into a 96 well plate, diluting 10 times in pure dimethyl sulfoxide, with the final well of each row a dimethyl sulfoxide blank. In an assay plate, 99 μL of appropriate buffer is added to each well, and 1 μL of each sample dilution is added to the buffer, achieving a range of final total concentrations in aqueous solutions having different pH. The buffers used are Simulated Gastric Fluid (SGF-pH 1.5) 0.5M NaCl, pH 1.5; Simulated Intestinal fluid (SIF-pH 4.5 and pH 6.8) 0.05M NaH2PO4, pH 4.5 and 6.8; and Hepes Buffer (HEPES-pH 7.4) 10 mM HEPES, 150 mM NaCl, pH 7.4. Control compounds pyrene, estriol and propranolol HCl are also assessed. Plates are spun and then mixed for 1 minute, and the absorbance is read using a Tecan Safire II to read wavelengths in the visible range (490, 535, and 650 nm) at four locations per well, reflecting the degree of turbidity present. The average optical density for each wavelength in each well is graphed vs. compound concentration, and the concentration at which the curve crosses a threshold O.D. of 0.01 for each wavelength is reported as the endpoint turbidity assay result. The average of the three wavelengths is used to compare turbidity of compounds. Compounds are considered to have low solubility if the threshold concentration is <31.3 μM, moderate solubility if the threshold concentration is 31.3 μM to 250 μM, and high solubility if the threshold concentration is >250 μm.
The following table indicates the relative solubility (L=low, M=moderate, H=high) based on turbidity threshold concentration at each pH for exemplary compounds according to the invention as indicated: […]

Sequence of B-Raf (Homo sapiens (Human), UniProt P15056) (P15056 whole entry): as the sequence (P15056 whole entry V600E) above, with E600V counted along it

SMILES	IC50 [1] [µM]	Biochemical activity ratio B/V600E [2]	Biochemical activity ratio B/C [2]	IC50 [3] [µM]	Biochemical activity ratio V600E/C [3]	IC50 [4] [µM]	IC50 [5] [µM]	IC50 ([6]; read-out: Cyp IC50 2C19, CYP2C19, substrate CEC) [µM]	IC50 ([7]; read-out: Cyp IC50 2C9, CYP2C9, substrate MFC) [µM]	IC50 [8] [µM]	IC50 [9] [µM]	IC50 [6] [µM]	IC50 [7] [µM]	turbidity threshold (L, M, H) 1.4 [10]	turbidity threshold (L, M, H) 4.5 [10]	turbidity threshold (L, M, H) 6.8 [10]	turbidity threshold (L, M, H) 7.4 [10]
CC(C)Cc1ncnc2[nH]cc(C(=O)c3c(F)ccc(NS(=O)(=O)c4ccc(C(F)(F)F)cc4)c3F)c12 [P-1015, N-[2,4-Difluoro-3-(4-isobutyl-7H-pyrrolo[2,3-d]pyrimidine-5-carbonyl)-phenyl]-4-trifluoromethyl-benzenesulfonamide]	> 0.1	0.1-10	>10	> 0.1	>10	< 0.1	> 10	> 10	> 10	> 10	5 to 10	–	–	–	–	–	–
N#Cc1ncnc2[nH]cc(C(=O)c3c(F)ccc(NS(=O)(=O)c4ccc(C(F)(F)F)cc4)c3F)c12 [P-1023, N-[3-(4-Cyano-7H-pyrrolo[2,3-d]pyrimidine-5-carbonyl)-2,4-difluoro-phenyl]-4-trifluoromethyl-benzenesulfonamide]	> 0.1	0.1-10	0.1-10	> 0.1	>10	> 0.1	–	–	–	–	–	–	–	–	–	–	–
COc1ccc(S(=O)(=O)Nc2ccc(F)c(C(=O)c3c[nH]c4ncnc(C)c34)c2F)cc1F [P-1036, N-[2,4-Difluoro-3-(4-methyl-7H-pyrrolo[2,3-d]pyrimidine-5-carbonyl)-phenyl]-3-fluoro-4-methoxy-benzenesulfonamide]	> 0.1	>10	>10	< 0.1	0.1-10	< 0.1	–	–	–	–	–	–	–	–	–	–	–
CCCc1ccc(S(=O)(=O)Nc2ccc(F)c(C(=O)c3c[nH]c4ncnc(OCC)c34)c2F)cc1 [P-1038, N-[3-(4-Ethoxy-7H-pyrrolo[2,3-d]pyrimidine-5-carbonyl)-2,4-difluoro-phenyl]-4-propyl-benzenesulfonamide]	< 0.1	0.1-10	>10	> 0.1	>10	< 0.1	> 10	–	–	> 10	5 to 10	5 to 10	5 to 10	–	–	–	–
O=C(c1c(F)ccc(NS(=O)(=O)c2ccc(C(F)(F)F)cc2)c1F)c1c[nH]c2nccc(NC3CCOCC3)c12 [P-2014, N-{2,4-Difluoro-3-[4-(tetrahydro-pyran-4-ylamino)-1H-pyrrolo[2,3-b]pyridine-3-carbonyl]-phenyl}-4-trifluoromethyl-benzenesulfonamide]	> 0.1	0.1-10	0.1-10	> 0.1	>10	< 0.1	–	–	–	–	–	–	–	L (low solubility if the threshold concentration is <31.3 μM)	L (low solubility if the threshold concentration is <31.3 μM)	L (low solubility if the threshold concentration is <31.3 μM)	L (low solubility if the threshold concentration is <31.3 μM)
O=C(c1c(F)ccc(NS(=O)(=O)c2ccc(C(F)(F)F)cc2)c1F)c1c[nH]c2nccc(C(F)(F)F)c12 [P-2016, N-[2,4-Difluoro-3-(4-trifluoromethyl-1H-pyrrolo[2,3-b]pyridine-3-carbonyl)-phenyl]-4-trifluoromethyl-benzenesulfonamide]	> 0.1	0.1-10	0.1-10	> 0.1	>10	< 0.1	–	–	–	–	–	–	–	L (low solubility if the threshold concentration is <31.3 μM)	L (low solubility if the threshold concentration is <31.3 μM)	L (low solubility if the threshold concentration is <31.3 μM)	M (moderate solubility if the threshold concentration is 31.3 μM to 250 μM)
O=C(c1c(F)ccc(NS(=O)(=O)c2ccccc2)c1F)c1c[nH]c2nccc(C(F)(F)F)c12 [P-2017, N-[2,4-Difluoro-3-(4-trifluoromethyl-1H-pyrrolo[2,3-b]pyridine-3-carbonyl)-phenyl]-benzenesulfonamide]	> 0.1	0.1-10	>10	> 0.1	>10	< 0.1	–	–	–	–	–	–	–	L (low solubility if the threshold concentration is <31.3 μM)	L (low solubility if the threshold concentration is <31.3 μM)	L (low solubility if the threshold concentration is <31.3 μM)	M (moderate solubility if the threshold concentration is 31.3 μM to 250 μM)
